Measured values taken from PubChem BioAssay AID179 (DTP/NCI, 2004).
Calls of active or inactive are those of the source.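 Rule for the calls: active = compounds giving half or more protection of infected cells from virus-caused growth loss, again on retest; inactive = the rest.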

System: CEM cells HIV-1 protection, formazan growth assay
Test: NCI AIDS Antiviral Assay
Conditions: for IC50: measured here: growth of uninfected CEM cells
Outline: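 Category rules: moderately active means at least 50% protection on retest, and confirmed active means 100% protection reproducibly. The underlying data came from a formazan growth assay in HIV-1-infected CEM cells.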

Row | SMILES | EC50 [µM] | IC50 [µM] | outcome
1 | Cn1cc(NC(=O)Nc2cc(C(=O)Nc3cc(C(=O)Nc4ccc(P(=O)(O)O)c5cc(P(=O)(O)O)ccc45)n(C)c3)n(C)c2)cc1C(=O)Nc1cc(C(=O)Nc2ccc(P(=O)(O)O)c3cc(P(=O)(O)O)ccc23)n(C)c1 | > 49 | 31.6 | –
2 | O=C(NN1C(=O)C(Cl)C1c1ccccc1O)c1ccccc1O (stereo not given) | > 56.2 | 8.32 | –
3 | CC(C)=CC(=O)C1c2cccc(O)c2C(=O)c2c(O)cc(C)cc21 (stereo not given) | > 30.9 | 10.2 | –
4 | CC1([N+](=O)[O-])COP(=O)(Nc2cccc(Cl)c2)OC1 (stereo not given) | > 813 | 398 | –
5 | CCN(CC)C(=O)Oc1c(Br)ccc2cc(C)cc(OC)c12 | > 200 | > 200 | –
6 | CC1(C)C(=O)c2ccccc2OC1N1CCN(C2Oc3ccccc3C(=O)C2(C)C)CC1 (stereo not given) | – | – | inactive
7 | CC(=O)O[C@H]1[C@@H]2CC(C)(C)CC2=C(C=O)C2(C=O)CC12C (stereo not given in full) | > 200 | 13.5 | –
8 | CC(C)c1cc(=O)[nH]c2cc(N)ccc12 | > 200 | > 200 | –
9 | OC(Cc1ccc2ccccc2c1)CN1CCC(c2ccccc2)CC1 (stereo not given) | > 93.3 | 37.2 | –
10 | CC(O)CS(=O)(=O)O (stereo not given) | > 200 | > 200 | –
11 | [O-]/C(=C\[P+](c1ccccc1)(c1ccccc1)c1ccccc1)c1ccccc1 | > 200 | 32.4 | –
12 | CCN(CC)CC(=O)Nc1cc(NC(=O)CN(CC)CC)c(C)c(NC(=O)CN(CC)CC)c1 | > 200 | 56.2 | –
13 | CC(/C=C1\N=C(c2ccccc2)OC1=O)=C\c1ccccc1 | > 200 | 105 | –
14 | Cc1ccc(-c2c(C#N)c(S)n(NS(=O)(=O)c3ccc(C)cc3)c(=O)c2C#N)cc1 | > 200 | 11.7 | –
15 | COc1cc2c3c(cccc3c1)C(=O)N(CCN1CCCC1)C2=O | > 200 | 2.45 | –
16 | O=c1ccc(=O)n(CCc2ccccn2)[nH]1 | > 200 | > 200 | –
17 | CC(=O)OCCn1c(Cc2ccc(C)cc2)nn(C(C)=O)c1=O | > 200 | > 200 | –
18 | CC1=NNC(=O)C1C1C=C(c2c[nH]c3ccccc23)OC1=O (stereo not given) | > 200 | 102 | –
19 | CN1CCCC(O)C1CNC12CC3CC(CC(C3)C1)C2 (stereo not given) | > 794 | 245 | –
20 | CC[C@@H]1CC2CN3CCc4c([nH]c5ccc(OC)cc45)C(CO)(C2)C13 (stereo not given in full) | – | – | inactive
21 | COc1ccc(-c2c(C(=O)Nc3ccccc3)c(-c3ccccc3)n(C3OC(CO)C(O)C(O)C3O)c(=S)c2C#N)cc1 (stereo not given) | > 200 | 107 | –
22 | FC(F)(F)C[P+](c1ccccc1)(c1ccccc1)c1ccccc1 | > 200 | 46.8 | –

Row | SMILES | EC50 [µM] | IC50 [µM] | outcome
23 | COc1ccc(/C=C\c2cc(OC)c(OC)c(OC)c2)cc1OCC(=O)O | – | – | inactive
24 | C=CCN1C2Cc3cc(OC)c(OC)cc3C1Cc1cc(OC)c(OC)cc12 | > 603 | 135 | –
25 | CC(=O)OC1CCC2(C)C(C)C(C)CCC2(O)C1O (stereo not given) | > 200 | 15.1 | –
26 | CSc1cc(-c2ccccn2)nc(-c2ccccn2)c1 | > 2 | 0.269 | –
27 | CCC(C)C(NC(=O)c1ccccc1SC(=O)CCCC[n+]1ccccc1)C(=O)O (stereo not given) | 23.4 | > 200 | –
28 | CCc1c(CN)c(CC)c(CNC2=NCCN2)c(CC)c1CNC1=NCCN1 | > 200 | > 200 | –
29 | C[C@@H]1C[C@@H]2C(=O)N(c3ccccc3)C(=O)[C@@H]2c2[nH]c3ccc(Br)cc3c21 | – | – | inactive
30 | CC(CCCC1SCC2NC(=O)NC21)C(=O)O (stereo not given) | > 977 | > 977 | –
31 | Cc1c(N)nc(C2CC(=O)N2CC(N)C(N)=O)nc1C(=O)NC(C(=O)NC(C)C(O)C(C)C(=O)NC(C(=O)NCCc1nc(-c2nc(C(=O)NCCNCC(C)O)cs2)cs1)C(C)O)C(OC1OC(CO)C(O)C(O)C1OC1OC(CO)C(O)C(OC(N)=O)C1O)c1cnc[nH]1 (stereo not given) | – | – | inactive
32 | CC(C)(C)c1cc(CCCCCCCC2(CCCCCCCc3cc(C(C)(C)C)cc(C(C)(C)C)c3)OC(COCCOCCCCCC#N)C(COCCOCCCCCC#N)O2)cc(C(C)(C)C)c1 (stereo not given) | – | – | inactive
33 | Cc1nc2ccccc2cc1C[N+]12CN3CN(CN(C3)C1)C2 | – | – | inactive
34 | Cc1cn(C2CC(NO)C(CO)O2)c(=O)[nH]c1=O (stereo not given) | 38.9 | 178 | –
35 | O=C1CC23CCC12CCCC3=O (stereo not given) | > 550 | > 550 | –
36 | CC(C)(O)C1CCC2(C)CC(=O)NCCN12 (stereo not given) | > 398 | > 398 | –
37 | O=C1C[C@@H](c2ccccc2)O[C@@H](c2ccccc2)C1 | > 200 | 112 | –
38 | O=C1N(Cc2ccccc2)[C@H]2CS(=O)(=O)C[C@@H]2N1Cc1ccccc1 | > 200 | > 200 | –
39 | CCCC(C)(COC(N)=O)COC(=O)NC1CC1 (stereo not given) | > 200 | > 200 | –
40 | O=c1/c(=C\c2ccc(Cl)c(Cl)c2)sc2n1CCN=2 | > 200 | > 200 | –
41 | CCO[C@@H]1N(C2CC(N=[N+]=[N-])C(CO)O2)C(=O)NC(=O)[C@]1(C)Cl (stereo not given in full) | > 200 | > 200 | –
42 | CCC(O)CCCCCCCCCCCCCCC(=O)O (stereo not given) | – | – | inactive
43 | CC1CC(C)(C)S(=O)(=O)O1 (stereo not given) | > 200 | > 200 | –
44 | c1ccc(-c2[o+]c(-c3ccccc3)c(-c3ccccc3)c(-c3ccccc3)c2-c2ccccc2)cc1 | – | – | inactive

Row | SMILES | EC50 [µM] | IC50 [µM] | outcome
45 | Clc1ccc(CN2COc3c(ccc4cccnc34)C2)cc1Cl | > 200 | 1.29 | –
46 | CN1C(=O)OC2CC/C=C\CCC2C1c1ccccc1 (stereo not given) | – | – | inactive
47 | N=c1oc2cc(O)c(O)cc2cc1C(N)=O | > 8.32 | 7.41 | –
48 | CCCCCCCCCCCCCCC(F)C(=O)OCC1OC(CO)(OC2OC(CO)C(O)C(O)C2O)C(O)C1O (stereo not given) | > 200 | 95.5 | –
49 | S=c1sc2ccccc2n1CN1CCCC1 | > 200 | 102 | –
50 | NCCN=C(Nc1ccccc1)Nc1ccccc1 | > 200 | 29.5 | –
51 | CCN(CC)CCN1C(=O)C(=O)N(c2cccc3ccccc23)C1=O | > 200 | > 200 | –
52 | c1ccc2sc(N3CCCCC3)nc2c1 | > 200 | 81.3 | –
53 | COC1/C=C/OC2(C)Oc3c(C)c(O)c4c(O)c(c(/C=N/N(c5ccccc5)c5ccccc5)c(O)c4c3C2=O)NC(=O)C(C)=C/C=C/C(C)C(O)C(C)C(O)C(C)C(OC(C)=O)C1C (stereo not given) | > 200 | 7.41 | –
54 | CO/C=C1\CCC2c3c(c4ccccc4n3C)CC1N2Cc1ccccc1 (stereo not given) | > 14.5 | 8.13 | –
55 | CCCCCCCCCCCCCCCCOC[C@@H](COC1OC(CO)C(O)C(O)C1O)OCCCCCCCCCCCCCCCC (stereo not given in full) | > 4.07 | > 4.07 | –
56 | Cc1ccc(S(=O)(=O)NC(CCC(=O)NNc2ccccc2)C(=O)NNc2ccccc2)cc1 (stereo not given) | > 200 | – | –
57 | CC(C)(C)C1CNP(=O)(c2ccccc2)OC1 (stereo not given) | > 70.8 | > 70.8 | –
58 | Clc1ccccc1C(c1ccccc1)(c1ccccc1)n1ccnc1 | > 200 | 21.4 | –
59 | CCCSc1nc(-c2ccc(OC)cc2)c(C#N)c(=O)n1C1OC(COC(C)=O)C(OC(C)=O)C(OC(C)=O)C1OC(C)=O (stereo not given) | > 200 | > 200 | –
60 | Cn1c(=O)nc2n(-c3ccc(Cl)cc3Cl)c3ccccc3nc-2c1=O | – | – | inactive
61 | O=C1C(=O)c2c(nc3ccccn23)-c2ccccc21 | > 2 | 0.427 | –
62 | CC(C)Oc1cc2c(c3oc(=O)cc(CCl)c13)C(=O)[C@H](C)[C@@H](C)O2 | > 200 | 5.37 | –
63 | O=C1CC(c2ccccc2)S(=O)(=O)c2ccccc2N1 (stereo not given) | > 200 | > 200 | –
64 | C/C(O)=C(\C=N\C(=S)N=Nc1c(O)[nH]c2ccccc12)C(=O)Nc1ccccc1C | > 200 | > 200 | –
65 | O=S(OCC1COS(=O)O1)OCC1COS(=O)O1 (stereo not given) | > 776 | 77.6 | –
66 | O=c1cc(S(=O)(=O)Cc2ccccc2)[nH]c(=O)[nH]1 | > 135 | > 135 | –

Row | SMILES | EC50 [µM] | IC50 [µM] | outcome
67 | CCOC(=O)/C(C#N)=C/c1ccc(C)cc1 | > 120 | > 120 | –
68 | O=c1[nH]c(=O)n(C2CC(F)C(CO)O2)cc1CO (stereo not given) | > 479 | 186 | –
69 | OCC(O)C(O)C(O)c1nn(-c2ccccc2)c2nc3ccc(Cl)cc3nc12 (stereo not given) | > 112 | > 112 | –
70 | COc1ccc(S(=O)(=O)N(C)CC(=O)O)cc1 | – | – | inactive
71 | CC[C@@]1(O)C(=O)OCc2c1cc1n(c2=O)Cc2cc3cc(O)ccc3nc2-1 | > 37.2 | 0.00832 | –
72 | CC1=CC(=O)/C(=C/n2c(=S)[nH]c3ccc([N+](=O)[O-])cc32)C(=O)O1 | > 1000 | 178 | –
73 | Cc1ccc2c(ccc(/C=C/c3ccc(O)c4ncccc34)[n+]2C)c1 | > 28.8 | 5.89 | –
74 | C=C1C(=O)O[C@@H]2CC(C)C3C(O)CC(O)[C@@]3(C)C[C@H]12 (stereo not given in full) | > 933 | 14.1 | –
75 | CSc1nc2[nH]c(=O)n(O)c(=O)c2n1Cc1ccccc1 | > 200 | 3.8 | –
76 | CN1CCC/C1=C1\C(=O)c2cccn2C1=O | > 200 | > 200 | –
77 | O=c1[nH]nc(-c2cccc(Br)c2)[nH]1 | > 200 | > 200 | –
78 | CC(C)NC(=O)OCCN=c1c2ccccc2ccc2ccccc12 | > 200 | 93.3 | –
79 | C=CCCCCCCCCCP(=O)(c1ccccc1)c1ccc2c(c1)OCCOCCOCCOCCO2 (stereo not given) | > 200 | 1.7 | –
80 | CC(=O)NC1=C(C)C(=O)c2c(nc3n2CCC3O)C1=N (stereo not given) | > 200 | 24 | –
81 | CCN(CC)CCc1nc(-c2ccccc2)no1 | > 200 | 27.5 | –
82 | C[C@H]1CC[C@@H]2[C@@H](C)[C@H]3[C@H](C[C@H]4[C@@H]5CC=C6C[C@@H](O)CC[C@]6(C)[C@H]5C[C@H](O)[C@]34C)N2C1 | – | – | inactive
83 | CCCCN(CCCC)NC(=S)Nc1ccccc1 | > 35.5 | > 35.5 | –
84 | COC1=C(C2=NC(C)(C)CO2)c2ccccc2C(C/C=C/[Si](C)(C)C)C1 (stereo not given) | > 26.9 | > 26.9 | –
85 | c1ccc2c(c1)CCc1c-2n(CCN2CCCCC2)c2ccccc12 | > 200 | 10.7 | –
86 | O=[N+]([O-])C(=C(NCc1ccccc1)NCc1ccccc1)C(Cl)=C(Cl)Cl | > 200 | 35.5 | –
87 | Nc1ccc(Cc2c(N)[nH]c(=O)[nH]c2=O)cc1 | > 200 | > 200 | –
